{"source": "patent US7166612B2", "about": "“Methods for reducing platelet activation platelet aggregaton or thrombosis” (Beth Israel Deaconess Medical Center, priority 2001, dated 2007)", "key": {"[1]": {"test_system": "laser-induced thrombi in cremaster arterioles", "format": "in vivo", "description": "A preferred animal model involves intravital microscopy of laser-induced thrombi. The method is described by Rosen et al., 2001, Am J Pathol 158, 1613–1622, which is incorporated herein by reference. Minor variations of that method were employed as described below.\nExperimental mice are pre-anesthetized and surgically prepared. A tracheal tube is placed to facilitate breathing and the jugular vein is canulated to allow for maintenance of anesthetic and introduction of compound. The cremaster muscle is then exteriorized. The muscle is affixed over a glass slide, allowing illumination from below. A steady drip of a sodium-bicarbonate buffered salt solution is maintained throughout the experiment to keep the exposed muscle moist. Blood flow in the muscle is visualized using a 40× water immersion lens and epi-illuminated with an appropriately filtered light source. Alexa 488-labeled anti-mouse CD41 antibody is injected through the jugular canulus to label platelets in vivo.\nThrombosis is initiated by damaging the vessel wall (of a 30 μm vessel) with a laser pulse from a MicroPoint LASER attached to the microscope. A LASER pulse is delivered, causing damage in an area smaller than 1 μm. The recruitment of platelets to the thrombus is then monitored by the accumulation of (activated) Alexa 488-labeled platelets at the ablation site using fluorescence microscopy, and the process is recorded digitally. The method thus permits in vivo analysis of platelet activation as measured by platelet aggregation and thrombosis.\nThe degree of embolization in an untreated mouse can be quantified using software for image analysis, e.g., BioQuant True Color Windows (Biometrics, Nashville, Tenn.), as described in Rosen et al., 2001, supra. The software package permits the determination of the “integrated optical density” or IOD of the thrombus.\nUsing quantitative intravital fluorescence videomicroscopy with high temporal resolution (111 images/second), the effect of PDE3 inhibition on the platelet recruitment into thrombi was directly observed over time. Platelets were fluorescently labeled by infusing rat-anti-mouse CD41 and Alexa 488-anti-rat IgG through a cannulated jugular vein. The cremaster microvasculature was exposed and mapped and suitable arteriole segments were selected for laser-induced injury. A series of control injuries were generated prior to infusion of the inhibitory compound. The power and the number of laser pulses required to generate each thrombus was recorded. Platelet accumulation to the thrombi following laser ablation was recorded using digital videomicroscopy. The thrombus total fluorescence in each frame of the videos was analyzed using Slidebook software for digital videomicroscopy. The pyridazinone compound was then infused. Following a 15 minute incubation, a series of experimental injuries were generated 250 μm proximal, with relationship to blood flow, of the first injury and the resultant thrombi were recorded. The power and the number of pulses required to induce the control thrombus was used to induce the experimental thrombus. The control and experimental thrombi constituting a pair were compared for statistical analysis. The total fluorescence intensity of the thrombi before and after the infusion of pyridazinone compound was recorded.\nImages from a representative experiment of the recruitment of fluorescently-labeled […] platelets into a growing thrombus over time is shown in FIG. 9A."}, "mouse platelets": {"test_system": "mouse platelets", "conditions": "in words"}, "platelets [2]": {"test_system": "platelets", "experiment": "agonist-induced platelet granule secretion (P-selectin expression, flow cytometry)", "format": "cell-based, human", "description": "In order to assay platelet activation by cell surface marker expression, fresh PRP is isolated from donors who have not ingested aspirin for two weeks prior to donation. PRP (40 μl) is incubated with known or suspected inhibitor in DMSO or DMSO alone for 15 min. The sample is then incubated with the indicated agonist (e.g., SFLLR) for 10 min. Following incubation of the sample with the indicated agonist, 10 μl of reaction mixture is transferred to 5 μl of phycoerythrin (PE)-conjugated AC 1.2 anti-P-selectin antibody (for assessment of P-selectin surface expression) or fluorescein isothiocyanate (FITC)-conjugated PAC-1 antibody (for assessment of GPIIbIIIa activation). PBS (500 μl) is added to the sample after a 20 min incubation and the platelets are analyzed immediately by flow cytometry. Flow cytometry can be performed using, for example, a Becton-Dickinson FACSCalibur flow cytometer or its equivalent. Fluorescent channels are set at logarithmic gain. Ten thousand particles are acquired for each sample. A 530/30 band pass filter is used for FL-1 fluorescence. A 585/42 band pass filter is used for FL-2 fluorescence. FITC is measured in the FL-1 channel and PE is measured in the FL-2 channel. Data are analyzed using, for example, CellQuest software on a Macintosh PowerPC, or their equivalents. […]\nEach of the compounds was tested for inhibition of platelet activation in response to the agonists SFLLR (a thrombin mimic), U46619 (a thromboxane A2 mimic), ADP and the phorbol ester PMA.\nCompounds were also tested by flow cytometry for the inhibition of SFLLR-induced GPIIbIIIa activation and P-selectin expression. In these experiments, freshly obtained PRP was prepared from healthy volunteers who had not ingested aspirin for two weeks prior to donation. Forty μl of PRP was incubated with inhibitor in DMSO or DMSO alone for 15 min. The sample was then incubated with the indicated agonist for 10 min. Following incubation of the sample with the indicated agonist, 10 μl of reaction mixture was transferred to 5 μl of PE-conjugated AC1.2 anti-P-selectin antibody (for assessment of P-selectin surface expression) or FITC-conjugated PAC-1 antibody (for assessment of GPIIbIIIa activation). PBS (500 μl) was added to the sample after a 20 min incubation and the platelets were analyzed immediately by flow cytometry. Flow cytometry was performed using a Becton-Dickinson FACSCalibur flow cytometer. Fluorescent channels were set at logarithmic gain. Ten thousand particles were acquired for each sample. A 530/30 band pass filter was used for FL-1 fluorescence. A 585/42 band pass filter was used for FL-2 fluorescence. FITC was measured in the FL-1 channel and PE was measured in the FL-2 channel. Data were analyzed using CellQuest software on a MacIntosh PowerPC.\nCompound was tested for its ability to inhibit SFLLR-, U46619-, ADP-, PMA-, and collagen I-induced platelet α-granule secretion. In these assays, platelets were incubated with increasing doses of compound for 30 minutes. The platelets were then exposed to a maximally stimulatory dose of the indicated agonist. P-selectin surface expression was analyzed by flow cytometry using phycoerythrin-anti-P-selectin to monitor for α-granule secretion."}, "[3]": {"test_system": "PGE1-induced cAMP levels in platelets", "experiment": "augmentation of PGE1-induced cAMP levels in platelets", "format": "cell-based, human", "conditions": "in words", "description": "(A) Compound was tested for its ability to inhibit SFLLR-, U46619-, ADP-, PMA-, and collagen I-induced platelet α-granule secretion. (B) The effect of the compound on PGE1-stimulated cAMP elevation was analyzed. Platelets were incubated with increasing doses of pyridazinone compound for 30 minutes prior to the 2 minute incubation with PGE1. Platelets were subsequently lysed and cAMP level was assayed using a commercially available ELISA kit (Liao et al., 1998, Eur J Pharmacol 349, 107–14). […] Error bars represent mean ±1 SD (n=4), *P<0.001.\nOne frequent target of anti-platelet agents is phosphodiesterase III (PDE III). […] The assay is performed as described by Liao et al., 1998, Eur J Pharmacol 349,107–114, incorporated herein by reference. Briefly, aliquots of PRP are exposed to increasing concentrations of the agent for 20 minutes. The PRP is then challenged with 1 μM PGE1 for 2 min The reaction is stopped by adding 10 mM EDTA, followed immediately by boiling for 2 min. The mixture is cooled to 4° C. and the precipitated protein is pelleted. cAMP content in the supernatant is quantitated using an enzyme immunoassay kit (Pharmacia-Amersham, NJ) according to the instructions of the manufacturer.\nIn order to assess whether the compounds useful according to the invention might act through inhibition phosphodiesterase III, each was tested for its effect on PGE1-induced cAMP increase. Determination of platelet cAMP levels was performed as described by Liao et al., 1998, supra. Aliquots of PRP were exposed to increasing concentrations of the indicated compounds for 20 min. PRP was then challenged with 1 μM PGE1 for 2 min. The reaction was stopped with the addition of 10 mM EDTA followed immediately by boiling for 2 min. The mixture was then cooled to 4° C. and the precipitated protein was pelleted. Cyclic AMP content in the supernatant was then quantified using an enzyme immunoassay kit (Pharmacia-Amersham, NJ) according to the instructions of the manufacturer."}, "platelets [4]": {"test_system": "platelets", "experiment": "platelet aggregation (aggregometer)", "format": "cell-based, human", "conditions": "in words", "description": "Platelet aggregation profiling is a standard methodology, generally performed with an instrument adapted for that express purpose, for example, a Platelet Aggregation Profiler (BioData, Horsham, Pa.). The assays can generally be performed according to the instructions of the manufacturer. As exemplary conditions, 400 μl of PRP are incubated with inhibitor for 15 minutes at room temperature. The sample is then incubated for 3 minutes at 37° C. in the Platelet Aggregation Profiler. The instrument is calibrated with platelet poor plasma serving as a blank. A baseline tracing is established by monitoring the light transmittance of PRP being stirred at 1200 rpm. Aggregation is initiated by the addition of SFLLR (200 μM) and the percent of platelet aggregation is measured by the change in light transmittance for 6 minutes following addition of SFLLR."}, "[5]": {"test_system": "platelet protein palmitoylation", "experiment": "incorporation of [3H]-palmitate into platelet proteins", "format": "cell-based", "conditions": "100 μM compound; 20 μM or 200 μM SFLLRN; in words", "description": "Platelets were labeled with [^3H]-palmitate for 2 hours in the absence (lanes 1, 2, and 3) or presence (lanes 4, 5, and 6) of 100 μM JF081204{5C} for 2 hours. Labeled platelets were then incubated with 0 μM ([…]), 20 μM (lanes 2 and 5), or 200 μM SFLLRN (lanes 3 and 6). Platelet samples were lysed, separated by SDS-PAGE, Western blotted, and visualized with a tritium imager screen (Panel a). The activation of platelets by SFLLRN led to an increase incorporation of [^3H]-palmitate into platelet proteins, whereas the presence of JF081204{5C} inhibited this activation-dependent [^3H]-palmitate incorporation (Panel b). Western blot membrane from panel (a) was stained with Ponceau S to visualize proteins in the platelet lysates.\nThe incorporation of [^3H]-palmitate into platelet intracellular proteins was examined to determine the effect of JF081204{5C} on platelet protein palmitoylation. […] Exposure of platelets to either 20 μM or 200 μM SFLLRN increased the intensity of the labeling. Incubation of platelets with 100 μM of JF081204 {5C} inhibited the increase in [^3H]-palmitate incorporation induced by either 20 μM or 200 μM SFLLRN."}, "[6]": {"test_system": "patients suffering intermittent claudication", "conditions": "cited from earlier work"}}}
{"compound": "9-methylene-4-(alkyl)-2,3,4,9-tetrahydro-1H-cyclopenta(b)quinoline", "values": [{"measurement": "thrombosis following laser-induced injury (reduction)", "setting": "[1]; bolus 6 mg/kg/5 min then continuous infusion 3 mg/kg/90 min, 36 thrombi in 5 mice", "result": "greater than 80%"}, {"measurement": "activation of mouse platelets by several platelet agonists", "setting": "mouse platelets", "result": "inhibits activation of mouse platelets"}]}
{"compound": "Cn1cc(/C=N/NC(N)=O)c2ccccc21", "note": "[2-[(1-methyl-1H-indol-3-yl)methylene]-hydrazinecarboxamide]", "values": [{"measurement": "effect on ADP-induced activation", "setting": "platelets [2]; ADP-induced, in words", "result": "little effect"}, {"measurement": "effect on PMA-induced platelet activation", "setting": "platelets [2]; in words", "result": "little effect"}, {"measurement": "effect on PGE1-stimulated cAMP levels in platelets", "setting": "[3]", "result": "augmented cAMP levels"}]}
{"compound": "CCCCCn1c2c(c(=N)c3ccccc31)CCC2", "note": "[JF081204{5C}]", "values": [{"measurement": "IC50s for U46619-, A23187-, and PMA-induced P-selectin expression less potent than SFLLR", "setting": "platelets [2]; U46619, A23187, PMA vs SFLLR", "result": "at least 150 fold"}, {"measurement": "median of maximum platelet accumulation compared to absence of compound", "setting": "[1]; 3 mg/kg (P<0.002) and 6 mg/kg (P<0.02), in words", "result": "statistically significant decrease"}, {"measurement": "median stabilized platelet accumulation", "setting": "[1]; 3 mg/kg (P<0.01) and 6 mg/kg (P<0.001), in words", "result": "dose-dependent inhibition"}, {"measurement": "delay in onset of platelet accumulation (time to 50% maximum platelet accumulation)", "setting": "[1]; 1, 3 and 6 mg/kg, in words", "result": "statistically significant delay"}, {"measurement": "inhibition of U46619- and collagen-induced platelet aggregation", "setting": "platelets [4]", "result": "not effective"}, {"measurement": "SFLLRN activation-dependent [3H]-palmitate incorporation into platelet proteins", "setting": "[5]", "result": "inhibited"}]}
{"compound": "CC1CC(=O)NN=C1c1ccc(Cl)cc1", "note": "(stereo not drawn) [Structure 9, 6-(4-chlorophenyl)-5-methyl-4,5-dihydro-5 methyl-3(2H)-pyridazinone]", "values": [{"measurement": "effect on PMA-induced platelet activation", "setting": "platelets [2]; in words", "result": "did not inhibit"}]}
{"compound": "Nc1cc2cccnc2c2ncccc12", "note": "[[1,10]Phenanthroline-5-ylamine, [1,10] Phenanthroline-5-ylamine]", "values": [{"measurement": "effect on PMA-induced platelet activation", "setting": "platelets [2]; in words", "result": "did not inhibit"}, {"measurement": "effect on PGE1-stimulated cAMP levels in platelets", "setting": "[3]", "result": "failed to augment"}]}
{"compound": "O=C1CCc2cc(OCCCCc3nnnn3C3CCCCC3)ccc2N1", "note": "[cilostazol]", "values": [{"measurement": "increase of the distance of pain free walking", "setting": "[6]", "result": "up to 59%"}]}
